Read-outs that look alike come from different tables or passages of the source.
Experiments:
[1] = test system: mice; assay: Tail-suspension test in mice: evaluation of antidepressive efficacy; type: in vivo; details: 10 mg/kg i.p., 30 min prior to testing, vehicle control 70%
Text: The aim of this study was to evaluate potential antidepressant activity of selected compounds Formula I. The tail suspension test has been routinely employed to test potential antidepressant compounds (See H. G. Vogel and W. H. Vogel, Drug Discovery and Evaluation, Pharmacological Assays, Springer-Verlag, 1997, p 304-305). The percentage of drug-treated animals showing the passive behavior (i.e., the immobility that mice display after active and unsuccessful attempts to escape when suspended by the tail) is measured and compared with vehicle-treated control animals. The duration of immobility is recorded for about 5 minutes. Mice are considered immobile when they hang passively and completely motionless for at least 1 minute. Active antidepressants reduce the immobility.
Groups of 9 animals were treated with compounds encompassed by Formula I (0.1-10 mg/kg; s.c.), or fluoxetine (10 mg/kg i.p.), and one group of 15 animals was treated with the vehicle by s.c. injection as a […] control. All animals were treated for 30 min prior to testing. The percentage of drug-treated animals showing passive behavior was determined and compared with vehicle-treated controls. […]

[2] = molecular target: T1, Norepinephrine Transporter (NET) (Homo sapiens, UniProt P23975); details: read-out: KD of the radioligand; human recombinant MDCK cells; historical value for the KD of the ligand; cited from earlier work
T1 construct: expressed in transfected cells; host or cells: MDCK cells

[3] = molecular target: T2, Serotonin Transporter (SERT) (Homo sapiens, UniProt P31645); details: human recombinant HEK-293 cells, historical value for the KD of the ligand, cited from earlier work
T2 construct: expressed in transfected cells; host or cells: HEK-293 cells

[4] = solubility; type: physicochemical; details: at 25° C. and ionic strength 0.15 M; read-out: solubility (S)
[5] = logP; type: physicochemical
[6] = pKa; type: physicochemical

T2 sequence (P31645 whole entry): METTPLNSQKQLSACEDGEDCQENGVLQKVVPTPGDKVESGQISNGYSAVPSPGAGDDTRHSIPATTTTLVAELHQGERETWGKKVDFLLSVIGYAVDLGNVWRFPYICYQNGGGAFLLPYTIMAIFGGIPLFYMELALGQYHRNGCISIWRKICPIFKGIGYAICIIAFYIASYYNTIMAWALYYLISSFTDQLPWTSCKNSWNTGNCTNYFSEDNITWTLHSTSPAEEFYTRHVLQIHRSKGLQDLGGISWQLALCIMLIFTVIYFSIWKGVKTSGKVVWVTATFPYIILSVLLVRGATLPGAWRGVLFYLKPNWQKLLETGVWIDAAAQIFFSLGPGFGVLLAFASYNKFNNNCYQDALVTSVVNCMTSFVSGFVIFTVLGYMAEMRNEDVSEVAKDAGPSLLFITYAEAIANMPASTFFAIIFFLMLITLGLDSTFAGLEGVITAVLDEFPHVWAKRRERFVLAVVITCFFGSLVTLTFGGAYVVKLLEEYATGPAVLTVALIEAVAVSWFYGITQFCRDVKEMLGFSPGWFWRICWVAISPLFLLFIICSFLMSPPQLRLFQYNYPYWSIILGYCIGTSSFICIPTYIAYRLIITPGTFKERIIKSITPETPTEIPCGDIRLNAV
T1 sequence (P23975 whole entry): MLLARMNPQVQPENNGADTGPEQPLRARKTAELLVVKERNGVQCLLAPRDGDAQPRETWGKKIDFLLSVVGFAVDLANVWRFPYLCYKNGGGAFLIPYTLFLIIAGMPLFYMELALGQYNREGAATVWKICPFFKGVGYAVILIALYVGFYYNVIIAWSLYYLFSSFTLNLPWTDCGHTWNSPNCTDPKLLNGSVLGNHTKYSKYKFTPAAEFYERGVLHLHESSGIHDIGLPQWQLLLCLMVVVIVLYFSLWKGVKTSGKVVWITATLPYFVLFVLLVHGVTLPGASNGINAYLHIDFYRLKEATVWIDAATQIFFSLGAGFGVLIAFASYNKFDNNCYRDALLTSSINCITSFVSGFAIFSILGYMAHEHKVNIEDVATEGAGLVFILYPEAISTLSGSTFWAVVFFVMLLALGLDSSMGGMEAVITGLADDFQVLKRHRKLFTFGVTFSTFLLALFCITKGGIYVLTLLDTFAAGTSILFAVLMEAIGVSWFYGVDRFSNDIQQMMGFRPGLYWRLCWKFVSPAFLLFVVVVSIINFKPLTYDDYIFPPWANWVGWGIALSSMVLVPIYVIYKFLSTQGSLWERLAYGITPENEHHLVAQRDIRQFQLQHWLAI

CNCCC(Oc1ccc(C(F)(F)F)cc1)c1ccccc1 (stereo not shown) [fluoxetine]
percentage of animals depressive (exhibiting passive behavior) [1]: 22%

COC(=O)[C@H]1[C@@H](c2ccc(I)cc2)C[C@@H]2CC[C@H]1N2C [[^125I] RTI-55, 3 beta-(4-iodophenyl)tropan-2 beta-carboxylic acid methyl ester]
Kd [2]: 24 nM | Kd ([3]; read-out: KD1 of the radioligand): 0.17 nM | Kd ([3]; read-out: KD2 of the radioligand): 2200 nM

CCOC(=O)c1cc2c(s1)-c1cc(Cl)cc(OCCCN(C)C)c1Oc1ccccc1-2.O=C(O)CC(O)(CC(=O)O)C(=O)O [Example 2, 11-Chloro-9-(3-dimethylamino-propoxy)-8-oxa-1-thia-dibenzo[e,h]azulene-2-carboxylic acid ethyl ester citrate salt]
solubility [4]: 167 mg/mL | logP [5]: 4.5 | pKa [6]: 6.9

Source: patent US20090221687A1, “Tetracyclic Monoamine Reuptake Inhibitors for Treatment of Cns Diseases and Disorders” (priority 2005, published 2009)
